The numbers were not newly measured in patent publication US8853170B2, “Compositions comprising sugar-cysteine products” (Max International, LLC, priority 2010, dated 2014), which cites them from elsewhere.

The test system of one series is healthy humans. To be noted: orally 8-10 g per day by an adult.
A further series relates to ATP levels. The settings on record: dogs subjected to ischemia, about 3 g/day for at least 5 days.
For a further series, the system named is humans. To be noted: ribose administered directly to humans.
For series [1], the system named is mice exposed to cyclophosphamide. The settings on record: 8 mmol/kg.
For series [2], the system named is acetaminophen hepatic and renal toxicity. To be noted: mice, doses of 2 g/kg.
The next series deals with glutathione levels. The settings on record: mice, 8 mmol/kg i.p.
The subject of series [3] is irradiation-induced bowel injury. To be noted: mice, doses of 1 g/kg.

With `O=C[C@H](O)[C@H](O)[C@H](O)CO` [ribose], the exercise capacity result in the series on healthy humans is recorded as “increase exercise capacity”. In addition, the ATP levels entry in the series with ATP levels is “effectively restored and maintained ATP levels”. Also, in the series with humans, the toxicity entry is “essentially non-toxic over wide dosage ranges”.
`O=C(O)[C@@H]1CSC(C(O)C(O)C(O)CO)N1` (stereo partly drawn) [RibCys, 2(R,S)-D-ribo-(1′,2′,3′,4′-tetrahydroxybutyl)thiazolidine-4(R)-carboxylic acid]: the “delivery of protective amounts of cysteine” value in series [1] is “deliver effective protective amounts of cysteine”. The “protection against acetaminophen hepatic and renal toxicity” value in series [2] was “protect mice against acetaminophen hepatic and renal toxicity”. The “increased glutathione levels, heart” value in the series with glutathione levels (heart) is reported as 1.5 times. For the same compound, the “increased glutathione levels, muscle tissue” value with glutathione levels (muscle tissue) is 2.5 times. Moreover, the “protection against irradiation-induced bowel injury” value in series [3] is “protect mice against irradiation-induced bowel injury”.
